According to ChEMBL document CHEMBL4033658, “Design and expeditious synthesis of organosilanes as potent antivirals targeting multidrug-resistant influenza A viruses” (Eur J Med Chem, 2017):

Tested on: Influenza A virus
Assay: Inhibition of Influenza A virus AM2-S31N mutant proton channel expressed in Xenopus laevis frog oocytes at 100 uM after 2 mins by electrophysiological two-electrode voltage clamp assay
Assay type: cell-based

In the case of C[Si](C)(C)c1ccc(CNC23CC4CC(CC(C4)C2)C3)cc1, the inhibition is reported as 77.5%.
For CC(C)(C)c1ccc(CNC23CC4CC(CC(O)(C4)C2)C3)cc1, the inhibition was 75.4%.
In the case of C[Si](C)(c1ccccc1)c1ccc(CNC23CC4CC(CC(O)(C4)C2)C3)cc1, the inhibition is reported as 84.9%.
C[Si](C)(C)c1ccc(CNC23CC4CC(CC(C4)C2)C3)nc1 showed an inhibition of 81.3%.
For CC(C)[Si](c1ccc(CNC23CC4CC(CC(O)(C4)C2)C3)cc1)(C(C)C)C(C)C, the inhibition was 33.6%.
With CC(C)(C)c1ccc(CNC23CC4CC(CC(C4)C2)C3)cc1 the inhibition was 72.6%.
Work on C[Si](C)(C)c1ccc(CNC23CC4CC(CC(O)(C4)C2)C3)cc1 yielded an inhibition of 86.7%.
